PubChem BioAssay (NCI)
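These data come from cells grown in 96-well plates and exposed to compound for 48 hours at five concentrations. At the TGI there is no net growth.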

What was measured:
Assay in all cases: growth of human tumour cells (NCI), 48 h
786-0 renal = test system: 786-0 renal
A498 renal = test system: A498 renal
A549 NSCLC = test system: A549 NSCLC
CAKI-1 renal = test system: CAKI-1 renal
CCRF-CEM leukemia = test system: CCRF-CEM leukemia
COLO 205 colon = test system: COLO 205 colon
DLD-1 colon = test system: DLD-1 colon
DMS 114 small cell lung = test system: DMS 114 small cell lung
EKVX NSCLC = test system: EKVX NSCLC
HCC-2998 colon = test system: HCC-2998 colon
HCT-116 colon = test system: HCT-116 colon
HCT-15 colon = test system: HCT-15 colon
HL-60(TB) leukemia = test system: HL-60(TB) leukemia
HOP-62 NSCLC = test system: HOP-62 NSCLC
HOP-92 NSCLC = test system: HOP-92 NSCLC
HT29 colon = test system: HT29 colon
IGROV1 ovarian = test system: IGROV1 ovarian
K-562 leukemia = test system: K-562 leukemia
KM20L2 colon = test system: KM20L2 colon
LXFL 529 NSCLC = test system: LXFL 529 NSCLC
M14 melanoma = test system: M14 melanoma
M19-MEL melanoma = test system: M19-MEL melanoma
MALME-3M melanoma = test system: MALME-3M melanoma
MOLT-4 leukemia = test system: MOLT-4 leukemia
NCI-H23 lung = test system: NCI-H23 lung
NCI-H522 lung = test system: NCI-H522 lung
OVCAR-4 ovarian = test system: OVCAR-4 ovarian
OVCAR-5 ovarian = test system: OVCAR-5 ovarian
OVCAR-8 ovarian = test system: OVCAR-8 ovarian
RPMI-8226 leukemia = test system: RPMI-8226 leukemia
RXF 393 renal = test system: RXF 393 renal
SF-268 CNS = test system: SF-268 CNS
SF-539 CNS = test system: SF-539 CNS
SK-MEL-2 melanoma = test system: SK-MEL-2 melanoma
SK-MEL-28 melanoma = test system: SK-MEL-28 melanoma
SK-MEL-5 melanoma = test system: SK-MEL-5 melanoma
SK-OV-3 ovarian = test system: SK-OV-3 ovarian
SN12C renal = test system: SN12C renal
SNB-19 CNS = test system: SNB-19 CNS
SNB-75 CNS = test system: SNB-75 CNS
SR leukemia = test system: SR leukemia
SW-620 colon = test system: SW-620 colon
TK-10 renal = test system: TK-10 renal
U251 CNS = test system: U251 CNS
UACC-62 melanoma = test system: UACC-62 melanoma
UO-31 renal = test system: UO-31 renal
ACHN renal = test system: ACHN renal
BT-549 breast = test system: BT-549 breast
DU-145 prostate = test system: DU-145 prostate
HS 578T breast = test system: HS 578T breast
KM12 colon = test system: KM12 colon
LOX IMVI melanoma = test system: LOX IMVI melanoma
MCF7 breast = test system: MCF7 breast
MDA-MB-231 breast = test system: MDA-MB-231 breast
MDA-MB-435 = test system: MDA-MB-435
MDA-N = test system: MDA-N
NCI-H226 lung = test system: NCI-H226 lung
NCI-H460 lung = test system: NCI-H460 lung
NCI/ADR-RES ovarian = test system: NCI/ADR-RES ovarian
OVCAR-3 ovarian = test system: OVCAR-3 ovarian
PC-3 prostate = test system: PC-3 prostate
SF-295 CNS = test system: SF-295 CNS
T-47D breast = test system: T-47D breast
UACC-257 melanoma = test system: UACC-257 melanoma

For O=C(CC(=O)C(=O)CC(=O)OCc1ccccc1)OCc1ccccc1, the TGI (786-0 renal) was greater than 100 µM, the TGI (A498 renal) was greater than 100 µM and the TGI (A549 NSCLC) was greater than 100 µM. For the same compound, the TGI (CAKI-1 renal) was greater than 100 µM, the TGI (CCRF-CEM leukemia) was greater than 100 µM and the TGI (COLO 205 colon) was greater than 100 µM. For the same compound, the TGI (DLD-1 colon) was greater than 100 µM, the TGI (DMS 114 small cell lung) was greater than 100 µM and the TGI (EKVX NSCLC) was greater than 100 µM. It also gave a TGI (HCC-2998 colon) greater than 100 µM, a TGI (HCT-116 colon) greater than 100 µM and a TGI (HCT-15 colon) greater than 100 µM. The TGI (HL-60(TB) leukemia) was greater than 100 µM, the TGI (HOP-62 NSCLC) was greater than 100 µM and the TGI (HOP-92 NSCLC) was greater than 100 µM. The TGI (HT29 colon) was greater than 100 µM, the TGI (IGROV1 ovarian) was greater than 100 µM and the TGI (K-562 leukemia) was greater than 100 µM. For the same compound, the TGI (KM20L2 colon) was greater than 100 µM, the TGI (LXFL 529 NSCLC) was greater than 100 µM and the TGI (M14 melanoma) was greater than 100 µM. For the same compound, the TGI (M19-MEL melanoma) was greater than 100 µM, the TGI (MALME-3M melanoma) was greater than 100 µM and the TGI (MOLT-4 leukemia) was greater than 100 µM. For the same compound, the TGI (NCI-H23 lung) was greater than 100 µM, the TGI (NCI-H522 lung) was greater than 100 µM and the TGI (OVCAR-4 ovarian) was greater than 100 µM. The TGI (OVCAR-5 ovarian) was greater than 100 µM, the TGI (OVCAR-8 ovarian) was greater than 100 µM and the TGI (RPMI-8226 leukemia) was greater than 100 µM. It also gave a TGI (RXF 393 renal) greater than 100 µM, a TGI (SF-268 CNS) greater than 100 µM and a TGI (SF-539 CNS) greater than 100 µM. The TGI (SK-MEL-2 melanoma) was greater than 100 µM, the TGI (SK-MEL-28 melanoma) was greater than 100 µM and the TGI (SK-MEL-5 melanoma) was greater than 100 µM. For the same compound, the TGI (SK-OV-3 ovarian) was greater than 100 µM, the TGI (SN12C renal) was greater than 100 µM and the TGI (SNB-19 CNS) was greater than 100 µM. It also gave a TGI (SNB-75 CNS) greater than 100 µM, a TGI (SR leukemia) greater than 100 µM and a TGI (SW-620 colon) greater than 100 µM. The TGI (TK-10 renal) was greater than 100 µM, the TGI (U251 CNS) was greater than 100 µM and the TGI (UACC-62 melanoma) was greater than 100 µM. For the same compound, the TGI (UO-31 renal) was 75.7 µM.
COc1cccc2c3cccc(OC)c3c3[nH]cnc3c12 showed a TGI (786-0 renal) of 2.98 µM, a TGI (A498 renal) of 33.4 µM and a TGI (A549 NSCLC) of 3.08 µM. For the same compound, the TGI (ACHN renal) was 22.4 µM, the TGI (BT-549 breast) was 31.6 µM and the TGI (CAKI-1 renal) was 37.9 µM. It also gave a TGI (CCRF-CEM leukemia) of 3.4 µM, a TGI (COLO 205 colon) of 30.1 µM and a TGI (DU-145 prostate) of 2.78 µM. It also gave a TGI (EKVX NSCLC) of 27.9 µM, a TGI (HCC-2998 colon) of 11.9 µM and a TGI (HCT-116 colon) of 3.1 µM. The TGI (HCT-15 colon) was 3.42 µM, the TGI (HL-60(TB) leukemia) was 2.38 µM and the TGI (HOP-62 NSCLC) was 35.2 µM. It also gave a TGI (HOP-92 NSCLC) of 24 µM, a TGI (HS 578T breast) of 20.5 µM and a TGI (HT29 colon) of 3 µM. It also gave a TGI (IGROV1 ovarian) of 3.46 µM, a TGI (K-562 leukemia) of 7.16 µM and a TGI (KM12 colon) of 4.56 µM. For the same compound, the TGI (LOX IMVI melanoma) was 3.52 µM, the TGI (M14 melanoma) was 3.08 µM and the TGI (MALME-3M melanoma) was 7.81 µM. It also gave a TGI (MCF7 breast) of 2.81 µM, a TGI (MDA-MB-231 breast) of 4.11 µM and a TGI (MDA-MB-435) of 4.1 µM. It also gave a TGI (MDA-N) of 3.34 µM, a TGI (MOLT-4 leukemia) of 6.27 µM and a TGI (NCI-H226 lung) of 32.7 µM. The TGI (NCI-H23 lung) was 3.37 µM, the TGI (NCI-H460 lung) was 3.26 µM and the TGI (NCI-H522 lung) was 2.88 µM. It also gave a TGI (NCI/ADR-RES ovarian) of 9.42 µM, a TGI (OVCAR-3 ovarian) of 31.7 µM and a TGI (OVCAR-4 ovarian) of 12 µM. It also gave a TGI (OVCAR-5 ovarian) of 10 µM, a TGI (PC-3 prostate) of 4.6 µM and a TGI (RPMI-8226 leukemia) of 5.67 µM. It also gave a TGI (RXF 393 renal) of 3.42 µM, a TGI (SF-268 CNS) of 9.26 µM and a TGI (SF-295 CNS) of 9.51 µM. It also gave a TGI (SF-539 CNS) of 2.68 µM, a TGI (SK-MEL-2 melanoma) of 34.3 µM and a TGI (SK-MEL-28 melanoma) of 9.53 µM. The TGI (SK-OV-3 ovarian) was 34.1 µM, the TGI (SN12C renal) was 22.3 µM and the TGI (SNB-19 CNS) was 26.9 µM. It also gave a TGI (SNB-75 CNS) of 8.58 µM, a TGI (SR leukemia) of 5.15 µM and a TGI (SW-620 colon) of 3.19 µM. It also gave a TGI (T-47D breast) of 40.2 µM, a TGI (TK-10 renal) of 3.91 µM and a TGI (U251 CNS) of 3.03 µM. For the same compound, the TGI (UACC-257 melanoma) was 36.1 µM, the TGI (UACC-62 melanoma) was 30.3 µM and the TGI (UO-31 renal) was 3.02 µM.
Oc1ccc(Cl)cc1Cc1cc(Cl)cc(Cc2cc(Cl)ccc2O)c1O showed a TGI (786-0 renal) of 11.3 µM, a TGI (A498 renal) of 4.28 µM and a TGI (A549 NSCLC) of 10.6 µM. The TGI (ACHN renal) was 7.64 µM, the TGI (BT-549 breast) was 9.61 µM and the TGI (CAKI-1 renal) was 13 µM. The TGI (CCRF-CEM leukemia) was 15.3 µM, the TGI (COLO 205 colon) was 3.25 µM and the TGI (DU-145 prostate) was 13 µM. The TGI (EKVX NSCLC) was 7.19 µM, the TGI (HCC-2998 colon) was 2.79 µM and the TGI (HCT-116 colon) was 9.33 µM. For the same compound, the TGI (HCT-15 colon) was 12.2 µM, the TGI (HL-60(TB) leukemia) was 8.38 µM and the TGI (HOP-62 NSCLC) was 10.9 µM. For the same compound, the TGI (HOP-92 NSCLC) was 5.94 µM, the TGI (HS 578T breast) was 7.71 µM and the TGI (HT29 colon) was 10.4 µM. The TGI (IGROV1 ovarian) was 13.5 µM, the TGI (K-562 leukemia) was 10.3 µM and the TGI (KM12 colon) was 10.5 µM. The TGI (LOX IMVI melanoma) was 9.82 µM, the TGI (M14 melanoma) was 6.71 µM and the TGI (MALME-3M melanoma) was 5.56 µM. It also gave a TGI (MCF7 breast) of 6.98 µM, a TGI (MDA-MB-231 breast) of 8.83 µM and a TGI (MDA-MB-435) of 9.3 µM. It also gave a TGI (MDA-N) of 8.31 µM, a TGI (MOLT-4 leukemia) of 8.67 µM and a TGI (NCI-H226 lung) of 7.07 µM. For the same compound, the TGI (NCI-H23 lung) was 6.62 µM, the TGI (NCI-H460 lung) was 4.96 µM and the TGI (NCI-H522 lung) was 3.32 µM. For the same compound, the TGI (NCI/ADR-RES ovarian) was 6.82 µM, the TGI (OVCAR-3 ovarian) was 11 µM and the TGI (OVCAR-4 ovarian) was 16.2 µM. For the same compound, the TGI (OVCAR-5 ovarian) was 12.2 µM, the TGI (OVCAR-8 ovarian) was 16.8 µM and the TGI (PC-3 prostate) was 7.7 µM. For the same compound, the TGI (RPMI-8226 leukemia) was 5.49 µM, the TGI (RXF 393 renal) was 8.86 µM and the TGI (SF-268 CNS) was 12 µM. For the same compound, the TGI (SF-295 CNS) was 7.36 µM, the TGI (SF-539 CNS) was 4.37 µM and the TGI (SK-MEL-2 melanoma) was 7.68 µM. For the same compound, the TGI (SK-MEL-28 melanoma) was 14.6 µM, the TGI (SK-MEL-5 melanoma) was 2.56 µM and the TGI (SK-OV-3 ovarian) was 8.5 µM. The TGI (SN12C renal) was 8.21 µM, the TGI (SNB-19 CNS) was 14.6 µM and the TGI (SNB-75 CNS) was 10.3 µM. The TGI (SR leukemia) was 11.6 µM, the TGI (SW-620 colon) was 13.5 µM and the TGI (T-47D breast) was 7.56 µM. For the same compound, the TGI (TK-10 renal) was 9.17 µM, the TGI (U251 CNS) was 11.8 µM and the TGI (UACC-257 melanoma) was 5.18 µM. For the same compound, the TGI (UACC-62 melanoma) was 10.1 µM and the TGI (UO-31 renal) was 10.3 µM.
